The values below come from patent US8618063B2, “Method for treating a synucleinopathy” (The Board of Trustees of the University of Illinois, priority 2008, dated 2013).

Entries after “also recorded” stand apart in the source; their conditions may differ. Like-named read-outs stand apart in the source and are kept apart here.

Experiment [1] concerns Src/Fyn effects on fast axonal transport. Description: Isolated axoplasm: blocking of Src/Fyn effects on fast axonal transport. It is filed as cell-based, squid Loligo pealeii. As for the experimental part:
(§1) Axoplasm was extruded from giant axons of the squid Loligo pealeii (Marine Biological Laboratory) according to established methods (Brady, et al. (1985) Cell Motil. 5(2):81-101). Axons were 400-600 μm in diameter and provided ≈5 μl of axoplasm per axon. Wild-type α-synuclein or α-synuclein with point mutations associated with familial Parkinson's disease (Ala30Pro or Ala53Thr), MPP+, enzymes or inhibitors were diluted into X/2 buffer (175 mM potassium aspartate, 65 mM taurine, 35 mM betaine, 25 mM glycine, 10 mM HEPES, 6.5 mM MgCl2, 5 mM EGTA, 1.5 mM CaCl2, 0.5 mM glucose, pH 7.2) supplemented with 2-5 mM ATP and 20 μl of this mix was added to perfusion chambers (Brady, et al. (1985) supra). Preparations were analyzed on a ZEISS AXIOMAT with a 100×, 1.3 na objective, and DIC optics. Hamamatsu Argus 20 and Model 2400 CCD camera were used for image processing and analysis. Organelle velocities were measured with a Photonics Microscopy C2117 video manipulator (Hamamatsu).
Screening of nonreceptor tyrosine kinases included Src- and Abl-family members. […] Given that neither kinesin nor dynein are known to have tyrosine phosphorylations, the ability of a broad spectrum PKC inhibitor Gö6976 was included in the assay to block the action of Fyn. Gö6976 inhibition of PKC abolished actions of Src/Fyn on fast axonal transport (FIG. 1D), as did perfusion of the MARCKS peptide.

Experiment [2] concerns α-synuclein mutant Ala30Pro effects on fast axonal transport. In words: Isolated axoplasm: blocking of mutant α-synuclein (Ala30Pro) effects on fast axonal transport. It is filed as cell-based, squid Loligo pealeii. The settings on record: coperfused with α-synuclein mutant Ala30Pro, FIG. 3. The protocol: as §1
Accordingly, these inhibitors were coperfused with pathological α-synuclein mutant Ala30Pro and fast axonal transport was monitored. […] Similarly, the effects of α-synuclein mutant Ala30Pro could be blocked by a PKCmu peptide substrate (FIG. 3B) and an inhibitor of Src-Family Tyrosine Kinases (PP2) (FIG. 3C).

Experiment [3] deals with LB filaments (wild-type α-synuclein) effects on fast axonal transport. In words: Isolated axoplasm: blocking of LB filament effects on fast axonal transport. Type of experiment: cell-based, squid Loligo pealeii. The following applies: FIG. 4B. The protocol:
as §1
Plasmids containing wild-type α-synuclein; Ala30Pro α-synuclein and Ala53Thr α-synuclein for conventional expression in bacteria were used to generate synuclein protein used in axoplasm and squid giant synapse preparations. […] The ability of LB filaments to affect retrograde axonal transport in isolated axoplasm was evaluated, as were the effects of wild-type LB filaments on kinases.

In experiment [4] the test system is MPP+ effects on fast axonal transport. In words: Isolated axoplasm: blocking of MPP+ effects on fast axonal transport. It is filed as cell-based, squid Loligo pealeii. The following applies: FIG. 5B. The protocol:
as §1
(§2) MPTP/MPP+ is the best characterized example of toxin-induced Parkinson's disease. The effects of MPP+ on fast axonal transport were examined in axoplasm as was dynein phosphorylation in cells. […] Based on reports that MPP+ could activate caspase3 (Turmel, et al. (2001) Mov. Disord. 16:185-9) and that caspase3 can activate a PKC by proteolytic cleavage (Kaul, et al. (2003) Eur. J. Neurosci. 18:1387-401), the ability of a caspase3 inhibitor to block effects of MPP+ on fast axonal transport was evaluated. […] Further, perfusion with Caspase 3 affected retrograde transport in a manner similar to PKC and MPP+ (retrograde transport=1.462±0.016 μm/sec).

The test system of a further experiment is phosphorylation of DIC. In words: NGF/BDNF (Trk receptor) induced shift of dynein intermediate chain. The settings on record: Trk neurotrophin receptors; Gö6976 at 100 nM. It is filed as cell-based. An excerpt:
Specifically, NGF and BDNF binding to Trk neurotrophin receptors caused a shift in the apparent molecular weight of dynein intermediate chain (DIC). To identify the kinase pathway involved in this change, more than 30 different kinase and phosphatase inhibitors were screened.

For experiment [5], the system named is DIC phosphorylation. In words: Reelin receptor stimulated DIC phosphorylation. Type of experiment: cell-based.
Experiment [6] has as its system DIC phosphorylation. In words: Labeling studies with MPP+ treated cortical neurons. It is filed as cell-based. The settings on record: MPP+ treated cortical neurons. As for the experimental part:
One mCi ^32P phosphate (ICN) was added per dish and incubated for 4 hours. Medium was discarded, cells homogenized in 1 ml of ROLB buffer and processed accordingly to standard methods (Morfini, et al. (2004) supra). Axoplasms were prepared as for video microscopy, but 1 mCi of γ-^32P-ATP was added. After 50 minutes incubation, axoplasms were homogenized in ROLB buffer. A 10 μl aliquot of lysate was precipitated with 15% TCA and radioactivity incorporated into protein determined by scintillation counting. Aliquots of equal counts were used for kinesin immunoprecipitation with 10 μg of 74.1 antibody and Protein G-agarose beads (Pierce). Immunoprecipitates were separated by SDS-PAGE, dried and exposed in a PHOSPHORIMAGER cassette, then scanned and quantified on a TYPHOON (Amersham/Molecular Dynamics).
as §2

Experiment [7] concerns Ala30Pro mutant α-synuclein induced failure of neurotransmission. Description: Squid giant synapse: prevention of Ala30Pro α-synuclein induced failure of neurotransmission. Type of experiment: cell-based. The settings on record: co-injection / coperfusion with Ala30Pro α-synuclein. As for the experimental part:
If they both work by activating PKC and increasing retrograde transport, they might affect availability of synaptic vesicle components in presynaptic terminals. Accordingly, either wild-type α-synuclein, Ala30Pro α-synuclein, or MPP+ were injected into the presynaptic side of the squid giant synapse as described for synaptic vesicles and synapsin (McGuinness, et al. (1989) J. Neurosci. 9:4138-4149; Llinas, et al. (1989) Proc. Nat. Acad. Sci. USA 86:5656-5660). This preparation has been used to evaluate the effects of reagents on presynaptic function by injecting, then stimulating the presynaptic side while recording intracellularly on both pre- and post-synaptic sides (Llinas, et al. (2004) Proc. Natl. Acad. Sci. USA 101:17855-60; Sugimori, et al. (1998) Neuroscience 86:39-51).

For experiment [8], the target named is T1, PKD (Homo sapiens, UniProt Q15139).
T1 sequence (Q15139 1-912): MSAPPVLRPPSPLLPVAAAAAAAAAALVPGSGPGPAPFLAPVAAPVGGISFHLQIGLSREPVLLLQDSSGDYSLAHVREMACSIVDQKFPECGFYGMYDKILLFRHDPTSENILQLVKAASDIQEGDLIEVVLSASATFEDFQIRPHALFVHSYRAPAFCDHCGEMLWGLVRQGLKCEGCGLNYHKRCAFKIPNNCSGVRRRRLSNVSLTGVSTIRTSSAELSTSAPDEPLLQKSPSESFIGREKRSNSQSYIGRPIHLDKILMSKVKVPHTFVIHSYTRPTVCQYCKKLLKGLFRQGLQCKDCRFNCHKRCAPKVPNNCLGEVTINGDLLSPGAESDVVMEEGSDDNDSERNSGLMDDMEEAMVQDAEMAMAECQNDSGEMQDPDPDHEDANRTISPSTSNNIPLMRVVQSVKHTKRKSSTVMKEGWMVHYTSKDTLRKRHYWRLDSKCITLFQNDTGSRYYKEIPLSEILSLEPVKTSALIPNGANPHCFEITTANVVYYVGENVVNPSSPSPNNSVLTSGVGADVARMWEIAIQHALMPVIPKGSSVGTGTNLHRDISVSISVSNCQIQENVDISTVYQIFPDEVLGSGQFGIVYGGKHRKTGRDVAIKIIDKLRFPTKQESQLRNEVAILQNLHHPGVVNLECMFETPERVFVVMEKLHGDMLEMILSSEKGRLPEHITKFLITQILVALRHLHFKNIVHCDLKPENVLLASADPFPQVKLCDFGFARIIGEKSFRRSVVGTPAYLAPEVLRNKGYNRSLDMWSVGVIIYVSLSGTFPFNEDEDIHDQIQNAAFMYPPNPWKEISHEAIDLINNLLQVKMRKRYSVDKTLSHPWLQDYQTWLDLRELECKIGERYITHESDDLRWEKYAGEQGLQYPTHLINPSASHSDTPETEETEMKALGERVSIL
The following applies: read-out: PKD autophosphorylation IC50; cited from earlier work.

The target in experiment [9] is T1, PKD. The settings on record: read-out: PKD phosphorylation of the exogenous substrate syntide-2 IC50; cited from earlier work.
Experiment [10] relates to cPKC-alpha, cPKC-beta, cPKC-gamma, nPKC-delta and nPKC-epsilon, and aPKC-zeta. The settings on record: cited from earlier work.
The next experiment concerns fast axonal transport. In words: Motility studies in isolated axoplasm: effect of perfused substance on fast axonal transport. Type of experiment: cell-based, squid Loligo pealeii. The settings on record: substance perfused alone into isolated axoplasm. The protocol:
as §1

By IC50 is commonly meant the concentration that gives 50% inhibition.

With `Cn1c2ccccc2c2c3c(c4c5ccccc5n(CCC#N)c4c21)CNC3=O` [Gö6976, 5,6,7,13-Tetrahydro-13-methyl-5-oxo-12H-indolo[2,3-a]pyrrolo[3,4-c]carbazole-12-propanenitrile], in [1] (100 nM inhibitor, FIG. 1D), the “blocking of Fyn effects on fast axonal transport” value was “blocked”. Besides, the “blocking of Src/Fyn actions on fast axonal transport” value in [1] (concentration not given) is recorded as “inhibited; also recorded: abolished”. Further, in [2], the “blocking of familial Parkinson's disease mutant α-synuclein (Ala30Pro) effects on fast axonal transport” value is reported as “effective at blocking; also recorded: prevented”. In addition, the “blocking of LB filament (wild-type α-synuclein) effects on fast axonal transport” value in experiment [3] is on record as “blocked”. The “blocking of MPP+ effects on fast axonal transport” value in experiment [4] is given as “blocked”. Besides, in the experiment with phosphorylation of DIC, the “blocking of NGF/BDNF induced shift (phosphorylation) of DIC” value is on record as “able to block”. The “blocking of Reelin receptor stimulated increase in DIC phosphorylation” value in the experiment with DIC phosphorylation [5] is reported as “blocked”. The “blocking of MPP+ induced increase in DIC phosphorylation” value with DIC phosphorylation [6] is listed as “blocked”. In experiment [7], the “prevention of Ala30Pro α-synuclein effect on neurotransmission” value is “prevented”.

On to `CC(C)(C)n1nc(-c2ccc(Cl)cc2)c2c(N)ncnc21` [PP2, 4-amino-5-(4-chlorophenyl)-7-(t-butyl) pyrazolo[3,4-d-]pyrimidine], for which the “blocking of familial Parkinson's disease mutant α-synuclein (Ala30Pro) effects on fast axonal transport” value in experiment [2] was “effective at blocking; also recorded: blocked”. Further, in [3], the “blocking of LB filament (wild-type α-synuclein) effects on fast axonal transport” value was “blocked”. Also, the “blocking of MPP+ effects on fast axonal transport” value in experiment [4] is “did not”. Besides, in [7], the “prevention of Ala30Pro α-synuclein effect on neurotransmission” value is “prevented”.

Consider `Oc1ccc(C=Cc2cc(O)cc(O)c2)cc1` [resveratrol], for which the concentration for half-maximal inhibition (IC50) on PKD [8] is 52 µM; at PKD [9], 36 µM. For the same molecule, in [10], the “effects against the autophosphorylation reactions of PKC isozyme subfamily members” value was “negligible effects”.

As to “Fyn: Src-Family nonreceptor tyrosine kinase perfused into axoplasm”, in the experiment on fast axonal transport, the “effect on fast axonal transport (retrograde RT / anterograde AT), in words” value was “indistinguishable from the effects of PKCs; also recorded: a rapid increase in the amount and rate of retrograde transport accompanied by a slow decline in anterograde transport”.
